The text below walks through data of US11440923B2, “Substituted macrocyclic indole derivatives” (Bayer Aktiengesellschaft, priority 2017, dated 2022).

A word on the IC50: it is the concentration that gives 50% inhibition. One may read the EC50 as the midpoint of the concentration-response curve.

One data set deals with MCL-1 (Homo sapiens (Human), UniProt Q07820, K194A/K197A/R201A). The data set can be described thus: Protein-protein interaction assay MCL-1/Noxa BH3 peptide (MCL-1 assay, TR-FRET). Type of data set: binding. The procedure:
The dose-dependent inhibition by the compounds described in this invention of the interaction between MCL-1 and the BH3 domain of Noxa (both human) was determined using a steady state binding competition assay with time-resolved fluorescence energy transfer (TR-FRET) readout. For that purpose MCL-1 (amino acids 173-321, N-terminal fused to Maltose Binding Protein (MBP) SEQ ID 1)) and a synthetic Noxa BH3-derived peptide of sequence Biotin-PEG2-PEG2-PAELEVE-Nva-[…]-amide (SEQ ID 2) served as protein receptor and tracer ligand respectively. The MBP-MCL-1 was purchased from Beryllium (Bedford, Mass., USA). The expression and purification of this protein construct has been described elsewhere (DOI:10.1371/journal.pone.0125010). The Noxa BH3-derived peptide can be obtained from e.g. Biosyntan (Berlin, Germany).
For that, 100-fold concentrated DMSO solutions were prepared by serial dilutions (1:3.4) of a 2 mM stock solution in a clear, 384-well microtiter plate (Greiner Bio-One, Frickenhausen, Germany). From there, 50 nl were transferred in a dark test plate (Greiner Bio-One, Frickenhausen, Germany). The assay was initiated by addition of 2 μL of a 2,5-fold concentrated MBP-MCL-1 solution (usually for a 1 nM end concentration in 5 μL reaction volume) in aqueous assay buffer [50 mM Tris/HCl pH 7, 100 mM sodium chloride (NaCl), 50 mM potassium fluoride (KF), 0.005% Tween-20, 2 mM DTT, 0.1% bovine gamma globulin (BGG)] to the compounds in the assay plate. This was followed by a 10-minute incubation step at 22° C. for pre-equilibration of the putative complex between MBP-MCL-1 and the compounds.
The mixture was incubated in the dark for one hour at 22° C. and then overnight at 4° C. The formation of MCL-1/Noxa complexes was determined by measuring the resonance energy transfer of the anti-MBP-Eu-cryptate antibody to the streptavidin-XL665 present in the reaction.
For that purpose, the fluorescence emission at 620 nm and 665 nm after excitation at 330-350 nm was measured in a TR-FRET measuring instrument, for instance a Rubystar or a Pherastar (both from BMG Lab Technologies, Offenburg, Germany) or a Viewlux (Perkin-Elmer). The ratio of the emission at 665 nm and at 622 nm was used as indicator of the amount of MCL-1/NOXA complexes present.
The resulting data (ratio) were normalized, taking 0% inhibition as the mean value of control measurements (usually 32 data points) where all reagents were included. In this case 50 nl DMSO were used instead of compounds. […] IC50 values were determined by regression analysis based on a 4 parameter equation (minimum, maximum, IC50, Hill; Y=Max+(Min−Max)/(1+(X/IC50)^Hill) using the Screener Software (Genedata).
(In TR-FRET formats the signal depends on donor and acceptor labels being close together.)

For data set [1], the system named is SUDHL5 cells. In words: Induction of caspase-3/7 activity in SUDHL5 cells (Assay 4). The settings on record: caspase-3/7 induction, 3 h, read-out: Caspase SUDHL5 EC50 (median). Type of data set: cell-based. Put shortly:
(§1)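 Read-out: Caspase-Glo 3/7 luminescence (1 h, 37 °C) after cells, plated overnight, were treated with compounds for 3 h at 37 °C. Signal corrected for cell-free medium background and expressed relative to DMSO control mean.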

For data set [2], the system named is SUDHL10 cells. The data set can be described thus: Induction of caspase-3/7 activity in SUDHL10 cells (Assay 4). Type of data set: cell-based. The settings on record: caspase-3/7 induction, 3 h, read-out: Caspase SUDHL10 EC50 (median). Put shortly: as §1
Data set [3] relates to SUDHL5 cells. In words: Induction of cytotoxicity in SUDHL5 cells (Assay 6). Format: cell-based. Put shortly:
(§2)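 Overnight seeding, 37 °C; 5 h compound exposure; CellTiter-Glo, 15 min RT shake; luminescence read. No-cell medium control.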

The subject of data set [4] is SUDHL10 cells. In words: Induction of cytotoxicity in SUDHL10 cells (Assay 6). Format: cell-based. Put shortly: as §2
The test system of data set [5] is SUDHL5 cells. In words: Antiproliferation assay SUDHL5 (Assay 7). Type of data set: cell-based. The settings on record: 72 h, CellTiter-Glo, read-out: Antiproli SUDHL5 IC50 (median). Put shortly: (§3)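 72 h antiproliferation, 37 °C, CellTiter-Glo luminescence. Day 0 plate = CI; DMSO = C0; IC50 calculated from these.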
In general terms: ATP-based viability assays read luminescence as a measure of living cells.

The test system of another data set is AMO-1 cells. In words: Antiproliferation assay AMO-1 (Assay 7). The settings on record: 72 h, CellTiter-Glo, read-out: Antiproli AMO-1 IC50 median. Format: cell-based. Put shortly: as §3
Another data set relates to HMC-1-8 cells. In words: Antiproliferation assay HMC-1-8 (Assay 7). Type of data set: cell-based. Put shortly:
as §3

The mark [6] stands for this setting: 5 h, CellTiter-Glo, read-out: Cytotox SUDHL5 IC50 (median).
Setting [7] is: 5 h, CellTiter-Glo, read-out: Cytotox SUDHL10 IC50 (median).
The mark [8] stands for this setting: 72 h, CellTiter-Glo; read-out: Antiproli HMC-1-8 IC50 median.
Where [9] appears, read: read-out: MCL-1 Assay IC50 (median).
The mark [10] stands for this setting: Homo sapiens, SU-DHL-5, 5 h, 5 h, CellTiter-Glo, read-out: Cytotox SUDHL5 IC50 (median).
The mark [11] stands for this setting: Homo sapiens, SU-DHL10, 5 h, 5 h, CellTiter-Glo, read-out: Cytotox SUDHL10 IC50 (median).
Setting [12] is: 72 h, CellTiter-Glo, read-out: Antiproli HMC-1-8 IC50 median.

Like-named read-outs stand apart in the source and are kept apart here.

MCL-1, sequence (Q07820 whole entry, looked up, stated change not applied, the tested form may be a part): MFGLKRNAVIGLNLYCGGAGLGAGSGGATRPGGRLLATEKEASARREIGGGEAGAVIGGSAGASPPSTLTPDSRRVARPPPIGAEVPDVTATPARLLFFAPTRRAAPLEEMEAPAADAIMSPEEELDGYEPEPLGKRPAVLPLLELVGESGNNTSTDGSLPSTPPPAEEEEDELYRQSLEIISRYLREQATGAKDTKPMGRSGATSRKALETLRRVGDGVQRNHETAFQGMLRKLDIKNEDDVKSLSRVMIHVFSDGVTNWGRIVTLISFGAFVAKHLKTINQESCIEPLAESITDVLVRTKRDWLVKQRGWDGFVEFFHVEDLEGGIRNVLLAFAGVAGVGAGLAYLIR

Take `CCc1c2c(nn1C)C(CCCN1CCOCC1)OCCCCn1c(C(=O)O)c(CCCOc3cccc4cc(F)ccc34)c3ccc(Cl)c-2c31` (single isomer, unassigned; enantiomer 2) [Example 67, (−)-4-chloro-3-ethyl-7-{3-[(6-fluoronaphthalen-1-yl)oxy]propyl}-2-methyl-15-[3-(morpholin-4-yl)propyl]-2,10,11,12,13,15-hexahydropyrazolo[4′,3′:9,10][1,6]oxazacycloundecino[8,7,6-hi]indole-8-carboxylic Acid (Enantiomer 2)]: the IC50 is 7.8 nM against MCL-1 (MCL-1 Assay IC50 (median)); 2600 nM in the data set with SUDHL5 cells [3] (setting [6]); 4900 nM in the data set on SUDHL10 cells [4] (setting [7]); 2100 nM in the data set with SUDHL5 cells [5]; 633 nM with AMO-1 cells; over 33000 nM with HMC-1-8 cells (setting [8]). In addition, the half-maximal effective concentration (EC50) in the data set with SUDHL5 cells [1] worked out at 1600 nM; in the data set with SUDHL10 cells [2], 4400 nM.
Turning to `CCc1c2c(nn1C)C1CCCN1CCCCn1c(C(=O)O)c(CCCOc3cccc4cc(F)ccc34)c3ccc(Cl)c-2c31` (racemic) [Example 107, (rac)-17-chloro-1-ethyl-14-{3-[(6-fluoronaphthalen-1-yl)oxy]propyl}-2-methyl-3b,4,5,6,8,9,10,11-octahydro-2H-pyrazolo[3′,4′:8,9]pyrrolo[1′,2′:6,7][1,6]diazacycloundecino[10,11,1-hi]indole-13-carboxylic Acid], the IC50 at MCL-1 (MCL-1 Assay IC50 (median)) worked out at 1.1 nM; in the data set on SUDHL5 cells [3] (setting [6]), 690 nM; with SUDHL10 cells [4] (setting [7]), 890 nM; in the data set with SUDHL5 cells [5] it was 1100 nM; in the data set on AMO-1 cells, 1340 nM; in the data set with HMC-1-8 cells (setting [8]), 6640 nM. Moreover, the EC50 in the data set with SUDHL5 cells [1] amounted to 540 nM; in the data set with SUDHL10 cells [2] it was 1200 nM.
`CCc1c2c(nn1C)C(CCC1CCOCC1)N(C)CCCCn1c(C(=O)O)c(CCCOc3cccc4cc(F)ccc34)c3ccc(Cl)c-2c31` (stereo not shown) [Example 101, 4-chloro-3-ethyl-7-{3-[(6-fluoro-1-naphthyl)oxy]propyl}-2,14-dimethyl-15-[2-(tetrahydro-2H-pyran-4-yl)ethyl]-10,11,12,13,14,15-hexahydro-2H-pyrazolo[3′,4′:8,9][1,6]diazacycloundecino[10,11,1-hi]indole-8-carboxylic Acid]: the IC50 was 1.8 nM at MCL-1 (setting [9]); 140 nM in the data set on SUDHL5 cells [3]; 71 nM with SUDHL10 cells [4]; 110 nM with SUDHL5 cells [5]; 95.8 nM in the data set with AMO-1 cells; 1490 nM with HMC-1-8 cells (setting [8]). The half-maximal effective concentration (EC50) was found to be 69 nM in the data set with SUDHL5 cells [1] and 51 nM in the data set with SUDHL10 cells [2].
Consider `CCc1c2c(nn1C)C(CCN(C)OC)OCCCCn1c(C(=O)O)c(CCCOc3cccc4cc(F)ccc34)c3ccc(Cl)c-2c31` (racemic) [Example 80, (rac)-4-chloro-3-ethyl-7-{3-[(6-fluoronaphthalen-1-yl)oxy]propyl}-(15-rac)-{2-[methoxy(methyl)amino]ethyl}-2-methyl-2,10,11,12,13,15-hexahydropyrazolo[4′,3′:9,10][1,6]oxazacycloundecino[8,7,6-hi]indole-8-carboxylic Acid], for which the IC50 came out at 3.5 nM at MCL-1 (MCL-1 Assay IC50 (median)); 150 nM in the data set with SUDHL5 cells [3] (setting [10]); 250 nM in the data set with SUDHL10 cells [4] (setting [11]); 170 nM in the data set on SUDHL5 cells [5] (Homo sapiens, SU-DHL-5, 72 h); 47.4 nM in the data set on AMO-1 cells (Homo sapiens, AMO1, 72 h); 1590 nM with HMC-1-8 cells (setting [12]). The EC50 was 140 nM in the data set on SUDHL5 cells [1] (Homo sapiens, SU-DHL-5, 3 h) and 130 nM with SUDHL10 cells [2] (Homo sapiens, SU-DHL10, 3 h).
On to `CCc1c2c(nn1C)C(CCN1CC(F)(F)C1)OCCCCn1c(C(=O)O)c(CCCOc3cccc4cc(F)ccc34)c3ccc(Cl)c-2c31` (racemic) [Example 77, (rac)-4-chloro-(15-rac)-[2-(3,3-difluoroazetidin-1-yl)ethyl]-3-ethyl-7-{3-[(6-fluoronaphthalen-1-yl)oxy]propyl}-2-methyl-2,10,11,12,13,15-hexahydropyrazolo[4′,3′:9,10][1,6]oxazacycloundecino[8,7,6-hi]indole-8-carboxylic Acid], for which the IC50 was determined as 1.7 nM on MCL-1 (MCL-1 Assay IC50 (median)); 45 nM with SUDHL5 cells [3] (setting [10]); 100 nM in the data set with SUDHL10 cells [4] (setting [11]); 71 nM with SUDHL5 cells [5] (Homo sapiens, SU-DHL-5, 72 h); 31.5 nM in the data set with AMO-1 cells (Homo sapiens, AMO1, 72 h); 520 nM in the data set with HMC-1-8 cells (setting [12]). Further, the EC50 stood at 31 nM in the data set on SUDHL5 cells [1] (Homo sapiens, SU-DHL-5, 3 h) and 37 nM in the data set on SUDHL10 cells [2] (Homo sapiens, SU-DHL10, 3 h).
Consider `CCc1c2c(nn1C)C(CCN1CC(F)C1)OCCCCn1c(C(=O)O)c(CCCOc3cccc4cc(F)ccc34)c3ccc(Cl)c-2c31` (racemic) [Example 108, (rac)-4-chloro-3-ethyl-15-[2-(rac)-(3-fluoroazetidin-1-yl)ethyl]-7-{3-[(6-fluoronaphthalen-1-yl)oxy]propyl}-2-methyl-2,10,11,12,13,15-hexahydropyrazolo[4′,3′:9,10][1,6]oxazacycloundecino[8,7,6-hi]indole-8-carboxylic Acid], for which the IC50 against MCL-1 (MCL-1 Assay IC50 (median)) was determined as 1.2 nM; in the data set with SUDHL5 cells [3] (setting [10]), 84 nM; in the data set on SUDHL10 cells [4] (setting [11]), 130 nM; in the data set on SUDHL5 cells [5] (Homo sapiens, SU-DHL-5, 72 h), 70 nM; in the data set on AMO-1 cells (Homo sapiens, AMO1, 72 h) it was 51.8 nM; in the data set with HMC-1-8 cells (setting [12]), 1870 nM. Moreover, the EC50 with SUDHL5 cells [1] (Homo sapiens, SU-DHL-5, 3 h) is 66 nM; in the data set on SUDHL10 cells [2] (Homo sapiens, SU-DHL10, 3 h), 67 nM.
Consider `CCc1c2c(nn1C)C1CCCN1CCCCn1c(C(=O)O)c(CCCOc3cccc4cc(F)ccc34)c3ccc(Cl)c-2c31` (single isomer, unassigned; (-)) [Example 106, (−)-17-chloro-1-ethyl-14-{3-[(6-fluoronaphthalen-1-yl)oxy]propyl}-2-methyl-3b,4,5,6,8,9,10,11-octahydro-2H-pyrazolo[3′,4′:8,9]pyrrolo[1′,2′:6,7][1,6]diazacycloundecino[10,11,1-hi]indole-13-carboxylic Acid], for which the IC50 at MCL-1 (setting [9]) was 17 nM; with SUDHL5 cells [3] (setting [6]), 3700 nM; in the data set with SUDHL10 cells [4] (setting [7]) it was 5700 nM; in the data set on SUDHL5 cells [5], 2100 nM; in the data set on AMO-1 cells it was 4450 nM; with HMC-1-8 cells (setting [8]), 20600 nM. The EC50 was 2700 nM in the data set on SUDHL5 cells [1] and 4800 nM in the data set with SUDHL10 cells [2].
As to `CCc1c2c(nn1C)C1CCCN1CCCCn1c(C(=O)O)c(CCCOc3cccc4cc(F)ccc34)c3ccc(Cl)c-2c31` (racemic) [Example 104, (rac)-17-chloro-1-ethyl-14-{3-[(6-fluoronaphthalen-1-yl)oxy]propyl}-2-methyl-3b,4,5,6,8,9,10,11-octahydro-2H-pyrazolo[3′,4′:8,9]pyrrolo[1′,2′:6,7][1,6]diazacycloundecino[10,11,1-hi]indole-13-carboxylic Acid], the IC50 against MCL-1 (MCL-1 Assay IC50 (median)) is 0.88 nM; with SUDHL5 cells [3] (setting [6]), 340 nM; in the data set on SUDHL10 cells [4] (setting [7]), 430 nM; in the data set with SUDHL5 cells [5] (Homo sapiens, SU-DHL-5, 72 h), 550 nM; in the data set with AMO-1 cells, 543 nM; in the data set on HMC-1-8 cells (setting [8]), 2630 nM. Besides, the EC50 in the data set with SUDHL5 cells [1] (Homo sapiens, SU-DHL-5, 3 h) is 330 nM; in the data set on SUDHL10 cells [2], 360 nM.
